The results in this text go back to patent US6780853B1, “Neuroactive steroids of the androstane and pregnane series” (priority 1995, dated 2004).

Series [1] deals with GABA receptor complex (GRC). The series can be described thus: [35S]TBPS binding in rat cerebral cortex P2 homogenate. The following applies: for IC50: concentration to inhibit 50% of control [35S]TBPS binding, 2 nM [35S]TBPS; for IMAX (maximum inhibition): maximum inhibition of [35S]TBPS binding. In short, it runs like this: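 Male Sprague-Dawley rat cortical P2 homogenate (0.5 mg protein) incubated with 2 nM [35S]TBPS in 50 mM Na/K phosphate pH 7.4, 200 mM NaCl, with GABA plus (+)bicuculline, 90 min at 25 °C. Filter-bound radioactivity counted; non-specific binding with […]; IC50 and maximal inhibition by nonlinear regression.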

Series [2] deals with metrazol induced convulsions. The series can be described thus: Antimetrazol activity in mice. Particulars: IP, 50% hpbcd, 10 mg/kg, 10 min before metrazol 85 mg/kg. It is filed as in vivo. As for the experimental part:
Experiments were also performed to determine the physiological relevance of neuroactive steroid and GABA receptor interactions by assessing the ability of compounds of the present invention to prevent metrazol induced convulsions in mice. Mice were injected with various doses of the test compounds of the invention, 10 minutes prior to the injection of metrazol. The time to onset of myoclonus (presence of forelimb clonic activity) induced by metrazol was determined by observing each mouse for a period of 30 minutes. In control mice, metrazol (85 mg/kg) will induce convulsion in 95% of the animals.
The anticonvulsant tests are similar to that described above.

Series [3] concerns time spent on the open-arms. The series can be described thus: Elevated plus-maze test. It is filed as in vivo, N.I.H. Swiss-Webster mice. Particulars: IP, 50% hpbcd, 10 mg/kg. The source says: The theoretical basis for the elevated plus-maze test is similar to that of the fight/dark transition test. As it was described previously by Pellow et al. J. Neurosci. Meth. 14:149-167 (1985)), the elevated plus-maze apparatus is designed to utilize the mice's natural aversion to open spaces. The apparatus consists of two open-arms and two enclosed-arms. The elevated plus-maze test allows for two measures of anxiety, the number of entries into the open-arms and the time spent on the open-arms, both expressed as a percentage of the total number of entries and time spent in/on both the open-arms and enclosed-arms.
Male N.I.H Swiss-Webster mice (Harlan, Indianapolis, Ind.) weighing 15-20 g were housed four per cage in polyethylene cages with sawdust bedding. The colony room was environmentally controlled (22° C.) with a 12 hr light/dark cycle (0600-1800 hr). Food and water were available ad libitum, except during testing. The experiments were run from 0700-1500 hr and groups were counterbalanced for time of day effects. Mice were only administered drug or vehicle once.
The method used was previously described (Lister, Psychopharmacol. 92:180-185 (1987)). The apparatus included two open arms perpendicular to two enclosed arms elevated 50 cm from the floor. Each arm was 50 cm long and the walls of the enclosed arms were 40 cm tall. The maze was made completely of black plexiglass. Incandescent 200 W light bulbs were above each of the open arms to produce a strong contrast between the open arms and the enclosed arms.
[…] Swiss-Webster mice were placed in the center of the plus-maze facing an open arm. During the 5 min test period, the number of entries onto the open arms and the enclosed arms, and the time spent in the open arms and enclosed arms were measured. All four paws had to be within an arm for the dependent variable to be measured. Therefore, the time spent in the center of the maze is not counted, so the total time spent in the open arms and the enclosed arms may not equal 5 min.

The subject of the next series is Progesterone Receptors. The series can be described thus: Inhibition of 3H-Progesterone Binding to the Bovine Uteral Progesterone Receptors. The following applies: competitor 10^−6M; 3H-progesterone 0.15 nM.
Another series concerns loss-of-righting reflex. The series can be described thus: Anesthetic activity, loss-of-righting reflex. It is filed as in vivo, mice. The following applies: iv. As for the experimental part: The compounds of and used in the invention can also be used for anesthetic indications at high doses. However, the preferred route of administration to induce anesthesia is intravenous (i.v.) administration. In animals, a drug's anesthetic properties is measured by the drug's ability to produce a loss-of-righting reflex. The loss-of-righting reflex is defined as the inability of an animal to right itself within 30 seconds when placed on its back. Mice were administered drug i.v. in the lateral tail vein. Following administration, mice were placed on their backs and observed for loss-of-righting reflex.

Regarding `CC(=O)c1ccc(C#CCO[C@H]2CC[C@H]3[C@@H]4CC[C@H]5C[C@](C)(O)CC[C@]5(C)[C@H]4CC[C@]23C)cc1` [17β-[3-(4-Acetylphenyl)-2-propynyloxy]-3α-hydroxy-3β-methyl-5α-androstane], the melting point was 52 to 55 °C. In series [1], the IC50 was determined as 316 nM and the “IMAX (maximum inhibition)” value is 95%.
With `COC1CCC2C3CCC4CC(O)(C#Cc5ccc(C(C)=O)cc5)CCC4(C)C3CCC12C` (stereo not drawn) [3β-(4′-acetylphenylethynyl)-3α-hydroxy-17β-methoxy-5β-androstane], the melting point fell in the range of 189 to 191 °C. In series [1], the IC50 was determined as 20 nM and the “IMAX (maximum inhibition)” value is on record as 104%. Besides, the “% Protected” value in series [2] worked out at 25%. The “Plus-Maze (% Control), time spent on the open-arms” value (from here on “Plus-Maze (% Control), time spent”) in series [3] is given as 129 % Control.
With `CC(=O)[C@H]1CC[C@H]2[C@@H]3CC[C@H]4C[C@H](O)CC[C@]4(C)[C@H]3CC[C@]12C` [3α-Hydroxy-5α-pregnan-20-one, reference compound], in series [1], the IC50 was 37 nM and the “IMAX (maximum inhibition)” value is on record as 95%. Further, in the series on Progesterone Receptors, the “% of Inhibition” value came to 14%.
The molecule `CO[C@H]1CC[C@H]2[C@@H]3CC[C@@H]4C[C@H](OC(=O)C(C)C)CC[C@]4(C)[C@H]3CC[C@]12C` displayed a melting point of 82 to 87 °C.
`C[C@]12CC[C@@H](O)C[C@@H]1CC[C@@H]1[C@@H]2CC[C@]2(C)[C@@H](C(=O)CO)CC[C@@H]12` [3α,21-Dihydroxy-5α-pregnan-20-one, reference compound]: in series [1], the IC50 worked out at 76 nM and the “IMAX (maximum inhibition)” value is 100%. In addition, the “% of Inhibition” value in the series with Progesterone Receptors amounted to 13%.
Molecule `COC1CCC2C3CCC4CC(O)(C(F)(F)F)CCC4(C)C3CCC12C` (stereo not drawn) [3α-Hydroxy-17β-methoxy-3β-trifluoromethyl-5β-androstane] [3β-trifluoromethyl-3α-hydroxy-17β-methoxy-5β-androstane] returned a melting point of 122 to 127 °C. In addition, in series [1], the IC50 was determined as 216 nM and the “IMAX (maximum inhibition)” value is 103%. Besides, the “% Protected” value in series [2] is 37.5%. In series [3], the “Plus-Maze (% Control), time spent” value was 115 % Control. For the same molecule, the “Loss-of-Righting Reflex (%)” value in the series on loss-of-righting reflex (10% hpbcd, 20 mg/kg) was 37.5%.
With `CCC(=O)[C@@]1(C)CC[C@H]2[C@@H]3CCC4=CC(=O)CCC4=C3CC[C@@]21C` [Example R5020], the “% of Inhibition” value with Progesterone Receptors stood at 100%.
As for `CC(=O)[C@H]1CC[C@H]2[C@@H]3CC[C@H]4C[C@H](O)CC[C@]4(C)[C@H]3C(=O)C[C@]12C` [3α-Hydroxy-5α-pregnan-11,20-dione, reference compound], in the series with loss-of-righting reflex (50% hpbcd, 10 mg/kg), the “Loss-of-Righting Reflex (%)” value is listed as 37.5%.
Regarding `COCC1(O)CCC2(C)C(CCC3C2CCC2(C)C(C(=O)CSc4ccc(N)cc4)CCC32)C1` (stereo not drawn) [21-(4′-aminophenylthio)-3α-hydroxy-3β-methoxymethyl-5α-pregnan-20-one], the melting point was in the range of 150 to 156 °C. Also, in series [1], the IC50 turned out to be 127 nM and the “IMAX (maximum inhibition)” value is reported as 89%.
Take `C[C@]12CC[C@@H](O)C[C@H]1CC[C@@H]1[C@@H]2CC[C@]2(C)[C@@H](C(=O)CSCCO)CC[C@@H]12` [3α-hydroxy-21-hydroxyethylthio-5β-pregnan-20-one]: the melting point was in the range of 150 to 152 °C. In series [1], the half-maximal inhibitory concentration (IC50) worked out at 141 nM and the “IMAX (maximum inhibition)” value amounted to 71%. In addition, the “% Protected” value in series [2] is on record as 12.5%.
Take `C[C@]12CC[C@@H](O)C[C@@H]1CC[C@@H]1[C@@H]2CC[C@]2(C)[C@@H](C(=O)CSc3ccncc3)CC[C@@H]12` [3α-hydroxy-21-(pyrid-4-ylthio)-5α-pregnan-20-one]: the melting point was 154 to 156 °C. In addition, in series [1], the IC50 came to 23 nM and the “IMAX (maximum inhibition)” value came to 98%. Also, the “% Protected” value in series [2] came to 62.5%. Also, the “Plus-Maze (% Control), time spent” value in series [3] is listed as 148 % Control.
`C[C@]12CC[C@@H](O)C[C@@H]1CC[C@@H]1[C@@H]2CC[C@]2(C)[C@@H](OCCO)CC[C@@H]12` [17β-(2-Hydroxyethoxy)-3α-hydroxy-5α-androstane] gave a melting point of 181 to 183 °C. Moreover, in series [1], the IC50 worked out at 534 nM and the “IMAX (maximum inhibition)” value is 99%.
Turning to `CC12CCC(O)CC1CCC1C2CCC2(C)C(C(=O)CSc3ncc[nH]3)CCC12` (stereo not drawn) [3α-Hydroxy-21-(imidazo-2-ylthio)-5β-pregnan-20-one], in series [1], the IC50 is 184 nM and the “IMAX (maximum inhibition)” value is recorded as 80%. In series [2], the “% Protected” value is given as 6.25%. The “Plus-Maze (% Control), time spent” value in series [3] worked out at 166 % Control.
Molecule `C[C@@]1(O)CC[C@@]2(C)[C@@H](CC[C@@H]3[C@@H]2CC[C@]2(C)[C@@H](C(=O)COc4ccc([N+](=O)[O-])cc4)CC[C@@H]32)C1` came in with a melting point of 169 to 172 °C.
`C[C@]12CC[C@@H](O)C[C@H]1CC[C@@H]1[C@@H]2CC[C@]2(C)[C@@H](C(=O)COc3cccnc3)CC[C@@H]12` [3α-hydroxy-21-(pyrid-3-yl)oxy-5β-pregnan-20-one] yielded a melting point of 63 to 66 °C. Also, in series [1], the IC50 stood at 76 nM and the “IMAX (maximum inhibition)” value was 76%.
`COC1CCC2C3CCC4CC(O)(C(F)(F)F)CCC4C3CCC12C` (stereo not drawn) [3α-Hydroxy-17β-methoxy-3β-trifluoromethyl-19-nor-5β-androstane] showed a melting point of 40 to 42 °C. Further, in series [1], the IC50 worked out at 93 nM and the “IMAX (maximum inhibition)” value is on record as 115%. Besides, the “Plus-Maze (% Control), time spent” value in series [3] stood at 107 % Control. For the same molecule, the “Loss-of-Righting Reflex (%)” value with loss-of-righting reflex (50% hpbcd, 10 mg/kg) stood at 62.5%.
On the same counts, the results for `C#CC1(O)CCC2C(CCC3C2CCC2(C)C(OC)CCC32)C1` (stereo not drawn) [3β-Ethynyl-3α-hydroxy-17β-methoxy-19-nor-5β-androstane] are 152 to 154 °C, 56 nM, 107%, 158 % Control and 100%.
As to `C=C(C)C#CC1(O)CCC2(C)C(CCC3C2CCC2(C)C(OC)CCC32)C1` (stereo not drawn) [3α-Hydroxy-17β-methoxy-3β-(3′-methylbut-3′-en-1′-ynyl)-5β-androstane], in series [2], the “% Protected” value is listed as 87.5%. In the series with loss-of-righting reflex (50% hpbcd, 10 mg/kg), the “Loss-of-Righting Reflex (%)” value came to 100%.
Consider `CC(=O)[C@H]1CC[C@H]2[C@@H]3CC[C@@H]4C[C@H](O)CC[C@]4(C)[C@H]3CC[C@]12C` [5β-pregnan-3α-of-20-one, 5β-pregnan-3α-ol-20 -one], for which the “% of Inhibition” value with Progesterone Receptors is reported as 9%.

As a reminder, the IC50 is the point on the concentration scale where inhibition reaches its midpoint. A higher IC50 goes with weaker potency. A word on the melting point: it is the temperature, or range, at which the solid turns liquid.
